We go through 4 compounds from paper PMC7524946, “[^11C]mHED PET follows a two-tissue compartment model in mouse myocardium with norepinephrine transporter (NET)-dependent uptake, while [^18F]LMI1195 uptake is NET-independent” (EJNMMI Research, 2020).

Several values for one entry are separate records, joined by “and”; a condition that tells them apart may be missing. Equal entries are not always repeated. Entries after “also recorded” stand apart in the source; their conditions may differ. Where two headings read alike, the source gives them in different places.

In one data set the test system is mouse myocardium. Description: [^11C]mHED PET kinetic (compartment) modelling with arteriovenous shunt input function. Conditions: mean of 3 scans (SD). Format: in vivo, FVB/N mice. As for the experimental part:
(§1) PET/computed tomography (CT) scans were performed with a calibrated SuperArgus PET/CT scanner (Sedecal, Madrid, Spain) with an axial field of view of 4.8 cm and a spatial resolution of 1.6–1.7 mm (full width at half maximum). Animals were under anaesthesia with ~ 2.5% isoflurane in oxygen/air (1:1) for tracer injection into the tail vein and during the scan. […] For scans without kinetic modelling, tracer was injected into mouse tail vein on scanner bed and the scan was started 1 min p.i. For kinetic modelling, [^11C]mHED was injected using the shunt system (see “Input function” section) on the scanner bed. Depth of anaesthesia was monitored by measuring the respiratory rate (SA Instruments, Inc., Stony Brook, USA). Body temperature was monitored by a rectal probe and kept at 37 °C by a heated air stream (37 °C). […] PET scans were followed by a CT for anatomical orientation.
For kinetic modelling, an arteriovenous shunt system was applied to record the coincidences of arterial blood (Twilite, Swisstrace, Zurich, Switzerland) simultaneously with the PET data acquisition (Additional file 1). The resulting blood coincidences were transformed to Bq/ml with a calibration factor determined from simultaneous measurements of an [^11C]mHED solution in the PET scanner and the blood counter. Next, the blood Bq/ml was multiplied with fitted Eq. 2 to calculate the plasma activity concentration. Finally, the plasma Bq/ml was multiplied with fitted Eq. 1 to receive the parent tracer Bq/ml in plasma, which is the input function.
PET kinetic modelling with R was performed with a one- and three two-tissue compartment models according to Eq. 4,4 CPET=1-vb×Wmodel⊗Ca+vb×Cb where CPET is the activity concentration in the PET image, either as kBq/cm^3 or normalised as SUV, vb is the partial volume of blood in the region-of-interest (potentially including interstitial space), Wmodel is the model-dependent weighting function. Ca is the parent tracer activity concentration in the arterial plasma (input function, kBq/ml, or SUV), and Cb is the whole blood activity concentration as calculated from the blood coincidences, in kBq/cm^3 or as SUV.
WTCM1 for the one-tissue compartment model (TCM1, Fig. 2a) corresponds to K1 × exp(− k2 × t), with t as time, K1 and k2 the clearance term from plasma to tissue and rate constant back, respectively. WTCM2p and WTCM2s for the two-tissue compartment models with parallel (TCM2p, Fig. 2b) and serial (TCM2s, Fig. 2c) tissue compartments, respectively, were according to Eqs. 5–10 [16]. In the case of the TCM2p, K1, k2, K3, and k4 correspond to φ1, θ1, φ2, and θ2, respectively, of Eq. 5. WTCM2v for the two-tissue compartment model in Fig. 2d (TCM2v) was numerically solved from the differential equation system in Eqs. 11 and 12 with the R package deSolve and the ode function, with 1-s time intervals.
Besides the transfer clearance or rate constants K1, k2, k3 (or K3 for TCM2p), and k4, vb was included as a parameter to fit. Equation 3 was fit to the experimental TACs applying the optim minimization function of R.
Fits were run with multiple starts with a matrix of 101 sets of random start parameters between lower and upper limits for K1, k2, k3 (or K3), k4, and vb (Additional file 1: Table S1). The activity concentrations in the individual tissue compartments were simulated by numerically solving the respective differential equation systems for TCM2s and TCM2v and from the analytical solutions for TCM2p (the two exponential terms of Eq. 5). Calculations were performed in parallel on a 32 core workstation. Best fits were chosen based on the sum of squared residues (SSR) between predicted and experimental TACs. […] Correlations between parameters were calculated with the lm, cor, and cor.test functions of R and were considered significant at p < 0.05.

For data set [1], the system named is NET. Also on record: method as in PMID 20679472, PMID 9290077. Conditions: mouse myocardium; cited from earlier work.
How the values of data set [2] were obtained: For determining activity concentration ratios of plasma to whole blood in mice, 11–90 MBq [^11C]mHED were injected intravenously (i.v.) via the tail vein in awake mice. After anaesthesia, animals were euthanized at the indicated time points and blood was collected. An aliquot was centrifuged as described above to separate plasma from blood cells. Plasma and whole blood activity concentrations (Bq/ml) were determined by a gamma counter (Wizard 1480; Perkin Elmer) to calculate the plasma/whole blood activity concentration ratio (ρplasma/blood). Bi-exponential function (Eq. 2) was fit to ρplasma/blood over time using the nls function of R.2 ρplasma/blood=r1×exp-r3×t-r2×exp-r4×t+r2
In Eq. 2, r1 to r4 are the fit parameters and t is the time.

The target in data set [3] is T1, norepinephrine transporter (NET) (Mus musculus, UniProt O55192).
T1 construct: from tissue; host or cells: myocardium (sympathetic nerve terminals) of living FVB/N mice, in vivo PET/CT
The data set is described as follows: Dose dependency of myocardial [^11C]mHED uptake by PET/CT (NET saturation). The class given is in vivo, FVB/N mice. Conditions: mouse myocardium. On the procedure: as §1
For quantitative analyses, PET data in NIfTI file format were read with the R package oro.nifti version 0.9.1, and a cube of 36 × 30 × 30 voxels (8.7 × 7.3 × 7.3 mm^3) including the heart as judged from the PET and CT data was cropped. A liver mask was defined including all voxels with a slope ≥ − 0.012 SUV/min between 11 and 48 min p.i. (the slope limit was empirically defined by visual inspection of the results, Fig. 1). PET data corresponding to the liver mask were excluded. The myocardium mask was defined from the remaining data as the volume with highest SUV between 3 and 11 min p.i., corresponding to 0.5% of the individual body weight. Average SUV was calculated for the indicated time windows (stated as SUVstart time–end time). The SUV of the neck region was obtained from a spherical region of interest with 3 mm radius, placed over the shoulders, close to the spine.
The dose of combined administered [^11C]mHED and metaraminol (precursor for radiosynthesis) at half-maximal NET saturation in nmol/kg (D50) was calculated from the myocardial SUV1–31 min at various doses (D). […] Fit parameters were SUV1–31 min at indefinitely low dose (SUVmax), SUV1–31 min at full NET saturation, i.e. SUV1–31 min for nondisplaceable tracer (SUVmin) and D50, according to Eq. 3 which was fit to the data with the function nls of R.3 SUV1-31min=SUVmax-SUVmin×D50/D50+D+SUVmin

The conditions of data set [4]: after [^11C]mHED i.v. injection.
Description: Mice were injected awake with formulated [^11C]mHED (26–173 MBq) via the tail vein. Animals were anaesthetized with 5% isoflurane in oxygen/air (1:1) and euthanized by decapitation at the indicated time points to collect blood, urine, and heart tissue. Plasma was separated from blood by centrifugation (5000×g for 5 min at 4 °C). Plasma and urine were each mixed with equal volumes of ice-cold acetonitrile (MeCN) for protein precipitation. The dissected heart was homogenized in 2 ml PBS, and proteins were precipitated with 2 ml ice-cold MeCN. The samples were centrifuged (5000×g, 4 °C), and the supernatants were filtered and analysed by radio-UPLC (Waters Acquity UPLC HSS T3 1.8 µm) with the following separation conditions: 10 mM NH4HCO3 (solvent A), MeCN (solvent B); 0.0–1.0 min, 5–30% B; 1.0–1.7 min, 30% B; 1.7–1.8 min, 30–5% B and 1.8–3.0 min, 5% B at a flow rate of 0.5 ml/min (retention time: 1.75 min). The fraction of parent tracer radioactivity to total radioactivity in plasma (fparent) was calculated as the ratio of radioactivity in the [^11C]mHED peak and total detected radioactivity in the chromatogram.
In Eq. 1, q1 to q4 are the fit parameters (q3 was estimated and fixed) and t is the time. Equation 1 was empirically defined, taking into account the exponential functions of time under linear kinetics and a lag phase for metabolite formation.
The target in data set [5] is T1, norepinephrine transporter (NET). Description: PET/CT myocardial tracer uptake with desipramine blocking (specificity for NET). The class given is in vivo, FVB/N mice. Conditions: 20 mg/kg desipramine HCl i.p. 10 min before tracer i.v. On the procedure: as §1
Two [^11C]mHED scans (one baseline, one for kinetic modelling) were excluded from further analysis due to technical problems before or during the scan, respectively (not included in Table 1). […] Tissue radioactivity was either expressed as kBq/cm^3 or normalized to the injected dose per g body weight (kBq/g) and expressed as SUV, assuming a tissue density of 1 g/cm^3. […]

The test system of data set [6] is NET. Conditions: cited from earlier work; for D50: rat left ventricle wall.
The test system of a further data set is myocardium. Also on record: method as in PMID 27230922. Conditions: humans, recent PET study; cited from earlier work.
Data set [7] concerns NET. Also on record: method as in PMID 21555377, PMID 23601914. Conditions: nonhuman primates; cited from earlier work.
Data set [8] concerns NET. Also on record: method as in PMID 21555377, PMID 23601914. Conditions: rats; cited from earlier work.
In data set [9] the test system is NET. Also on record: method as in PMID 21555377, PMID 23601914. Conditions: rabbits; cited from earlier work.
For data set [10], the system named is NET. Also on record: method as in PMID 21555377, PMID 23601914. Conditions: human subjects; cited from earlier work.
Where [11] appears, read: volume-of-interest 0.5% body volume.

T1 sequence (O55192 whole entry): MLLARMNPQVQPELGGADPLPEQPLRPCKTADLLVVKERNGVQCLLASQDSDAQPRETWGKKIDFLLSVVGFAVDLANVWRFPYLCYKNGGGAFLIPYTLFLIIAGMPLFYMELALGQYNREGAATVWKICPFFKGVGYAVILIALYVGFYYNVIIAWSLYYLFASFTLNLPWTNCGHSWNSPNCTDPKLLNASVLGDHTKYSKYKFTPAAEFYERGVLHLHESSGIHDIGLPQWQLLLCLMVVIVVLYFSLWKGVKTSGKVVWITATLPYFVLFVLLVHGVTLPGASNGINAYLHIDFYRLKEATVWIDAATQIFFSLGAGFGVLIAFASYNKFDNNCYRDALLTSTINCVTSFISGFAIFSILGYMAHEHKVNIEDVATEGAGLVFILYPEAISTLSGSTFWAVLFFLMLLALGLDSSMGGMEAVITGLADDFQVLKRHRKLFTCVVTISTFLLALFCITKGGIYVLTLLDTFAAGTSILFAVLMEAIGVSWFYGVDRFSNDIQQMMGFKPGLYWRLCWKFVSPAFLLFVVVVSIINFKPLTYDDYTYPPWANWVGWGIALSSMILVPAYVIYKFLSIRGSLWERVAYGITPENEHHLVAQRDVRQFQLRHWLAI

For the compound `C[C@H](N[11CH3])[C@H](O)c1cccc(O)c1` [[^11C]mHED, [^11C]meta-hydroxyephedrine], the K1 was 0.87 ± 0.11 ml/min/cm^3 and 0.868 (0.113) ml/min/cm^3 with mouse myocardium (TCM1); 0.499 (0.153) ml/min/cm^3 in the data set on mouse myocardium (TCM2p); 0.947 ± 0.146 ml/min/cm^3 and 0.947 (0.146) ml/min/cm^3 in the data set with mouse myocardium (TCM2s); 0.947 ± 0.146 ml/min/cm^3 and 0.947 (0.146) ml/min/cm^3 in the data set with mouse myocardium (TCM2v). For the same compound, the k2 is 0.029 (0.01) 1/min with mouse myocardium (TCM1), 0.0125 (0.0034) 1/min in the data set on mouse myocardium (TCM2p), 0.0672 (0.0062) 1/min with mouse myocardium (TCM2s) and 0.0672 (0.0062) 1/min with mouse myocardium (TCM2v). In addition, in the data set with mouse myocardium (TCM2p), the K3 is 0.448 (0.114) ml/min/cm^3. Further, the k4 with mouse myocardium (TCM2p) is 0.134 (0.040) 1/min; with mouse myocardium (TCM2s) it was 0.0254 (0.0117) 1/min; with mouse myocardium (TCM2v), 0.0125 (0.0034) 1/min. Also, the k3 is 0.0541 (0.0263) 1/min with mouse myocardium (TCM2s) and 0.0669 (0.0344) 1/min in the data set with mouse myocardium (TCM2v). Also, the results for the “Reported D50” value in the data set on NET [1] and in the data set on NET [6] (rat myocardium) were 132 nmol/kg and 91 nmol/kg, respectively. Further, the “ρplasma/blood (plasma/whole blood activity concentration ratio)” value is ~ 0.6 in data set [2] (at 3 min); ~ 1 in data set [2] (constant value from ~ 20 min onwards); 1.85 in data set [2] (time t = 0, assumed 1/(1-Hkt), hematocrit 0.458). Moreover, in [3] (from SUV1–31 min, fit Eq. 3, n = 14 scans), the “D50 (dose of combined [^11C]mHED and metaraminol at half-maximal NET saturation)” value was found to be 88.3 nmol/kg. Further, the “D50 (dose at half-maximal NET saturation)” value in data set [3] (from SUV1–61 min (complete scan duration)) turned out to be 89.1 nmol/kg. Besides, the “Fit SUVmax (SUV1–31 min at indefinitely low dose)” value in data set [3] (setting [11]) was 4.4. The “Fit SUVmin (SUV1–31 min at full NET saturation, nondisplaceable tracer)” value in data set [3] (setting [11]) was 1.0. Further, in data set [4] (mouse), the “Radiometabolite in plasma and urine” value was “detected a radiometabolite in plasma and urine”. Further, the Radiometabolite in myocardium entry in data set [4] (mouse heart extract) was “no radiometabolite were detected”. Also, the “Blocking of myocardial tracer uptake by desipramine” value in [5] is on record as “significantly reduced; also recorded: blocking effect was observed”. Besides, the “K1 of [^11C]mHED uptake” value in the data set on myocardium was “up to 0.6 ml/min/g”.

In the case of `N=C(N)NCc1ccc(OCCC[18F])c(Br)c1` [[^18F]LMI1195, [^18F]flubrobenguane], the “Desipramine sensitivity of cardiac uptake” value was “desipramine-sensitive” with NET [7], “not in rats” in the data set with NET [8], “desipramine-sensitive” in the data set with NET [9] and “desipramine-sensitive” with NET [10]. Besides, the “Blocking of myocardial tracer uptake by desipramine” value in data set [5] is “not”.

As for `CNC(C)C(O)c1cccc(O)c1` (stereo not shown) [mHED, meta-hydroxyephedrine], in the data set with NET [6], the D50 was 90 to 100 nmol/kg.

As to `C[C@H](N)[C@H](O)c1cccc(O)c1` [metaraminol], in the data set on NET [6], the D50 was 90 to 100 nmol/kg.
